These results are taken from patent publication US8202899B2, “Pyrazole urea derivatives used as kinase inhibitors” (Array BioPharma Inc., priority 2007, dated 2012).

Data set [1] relates to TNF-α production in whole blood treated with LPS. The data set can be described thus: Human Whole Blood TNF-α Assay. The following applies: inhibition of LPS-induced TNF-α production, ELISA, read-out: apparent IC50. The class given is cell-based. How it is done:
In a functional cell assay, the compound of Examples 1 and 2 were tested for their ability to inhibit TNF-α production in whole blood treated with bacterial lipopolysaccharide (LPS) to induce cytokine production (as detected by ELISA).
Compound test solutions were made by making 3.33 fold serial dilutions in DMSO, which dilutions were then diluted to 5× stocks by diluting with MEM, 2% heat inactivated fetal bovine serum (“MS”), 20 mM HEPES, 2 mM L-glutamine, and 1% penicillin/streptomycin
Whole blood was collected from human volunteers using sodium heparin Vacutainer™ tubes and processed within two hours of collection. Blood was diluted 3-fold with Whole Blood (WB) medium (RPMI 1640, 2% heat inactivated fetal bovine serum, 20 mM HEPES, 2 mM L-glutamine, and 1% penicillin/streptomycin). 100 μL of diluted blood was added to each well of a 96-well cell culture plate, followed by 30 μL of a compound test solution.
After a one-hour incubation at 37° C./5% CO2, 20 μL of 7.5 ng/mL lipopolysaccharide (E. coli K-235, Sigma L2018) was added to each well. The cells were incubated again at 37° C./5% CO2 for 16-20 hours. […]
Briefly, test compound supernatants were added to wells of a 96-well plate that were coated with antibody to human TNF-α (R&D Systems, MAB210) and incubated at room temperature for at least one hour. […] The absorbance at 405 nm was then read.
For orientation: An ELISA detects its analyte on a solid surface through an enzyme-linked reagent.

Data set [2] deals with activated p38α enzyme (Homo sapiens, UniProt Q16539). The data set can be described thus: p38 Biochemical Assay. How it is done:
p38 activity was assayed at room temperature in a 100 μL reaction containing 5 nM activated p38α enzyme and 1 μM ATF-2 (Activating Transcription Factor 2 fusion protein) as the substrate in […] HEPES (pH 7.4), 100 μM Vanadate, 1 mM :DTT, 10 mM MgCl2 and 10 μM [γ-^33P]-ATP (˜0.1 μCi P^33/reaction). The reaction was terminated after 30-40 minutes by adding 25% TCA, allowed to stand for 5 minutes, and then transferred directly to a GF-B membrane filter plate. The filter was washed twice for 30 seconds with 0.5% phosphoric acid using a Tomtec Mach III Automated Harvestor. After washing, the vacuum was continued for 30 seconds to dry the filter. Approximately 30 μL of scintillant was added per well to the filter plate and then read in a Liquid Scintillation Counter (Packard TopCount HTS).

Data set [3] in a line: Solubility Assay (modified shake flask method). In kind it is physicochemical. As to the method: The solubility of each of the compounds of Examples 1 and 2 were tested at pHs 1.2, 6.5 and 7.4 using a modified shake flask method. The compounds were received as 1.6 mg/mL stock solutions in DMSO. Aqueous unknowns were prepared at final concentrations of 16 μg/mL and 32 μg/mL, with each aqueous unknown containing 1% or 2% DMSO, respectively. The aqueous samples were quantitated against organic standards prepared in MeOH (with 1% DMSO in the high standard (16 μg/mL). UV 220 nm and UV 254 nm area were used for quantitation.

Molecules are shown by their SMILES. pIC50: −log10 of the molar value. ≈ marks a conversion by molar mass, not a printed value. Where two headings read alike, the source gives them in different places.

The term pIC50 denotes the negative decadic logarithm of the IC50, by convention in mol/L. By solubility is commonly meant the concentration that dissolves in the medium under given conditions.

activated p38α enzyme, sequence (Q16539 whole entry, the tested form may be a part): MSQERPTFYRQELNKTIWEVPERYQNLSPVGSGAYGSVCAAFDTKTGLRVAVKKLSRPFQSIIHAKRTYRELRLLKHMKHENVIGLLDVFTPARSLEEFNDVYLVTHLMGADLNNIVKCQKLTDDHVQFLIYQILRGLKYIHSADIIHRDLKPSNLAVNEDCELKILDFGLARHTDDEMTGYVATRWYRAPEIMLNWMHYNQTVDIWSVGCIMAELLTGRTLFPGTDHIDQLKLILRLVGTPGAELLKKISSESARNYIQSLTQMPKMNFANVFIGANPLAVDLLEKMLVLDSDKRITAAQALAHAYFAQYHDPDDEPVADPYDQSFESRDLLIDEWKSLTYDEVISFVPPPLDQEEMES

In the case of `CC(C)(C)c1cc(NC(=O)NCc2cc(F)ccc2Oc2ccc3c(cnn3CCO)c2)n(-c2ccc(CO)cc2)n1` [Example 2, 1-(3-tert-butyl-1-(4-(hydroxymethyl)phenyl)-1H-pyrazol-5-yl)-3-(5-fluoro-2-(1-(2-hydroxymethyl)-1H-indazol-5-yloxy)benzyl)urea], the pIC50 in data set [1] is 8.72. The “p38 inhibition potency compared to the compound of Example 138 of WO 2004/078116” value in data set [2] is “significantly more potent inhibitor of p38”.

Take `Cn1nc(C(C)(C)C)cc1NC(=O)NCc1cc(F)ccc1Oc1ccc2c(cnn2CC(C)(C)O)c1` [Example 138, reference compound]: the solubility in data set [3] (aqueous solution (pH 7.4), aqueous buffer, pH 7.4, starting conc. 1000 μg/mL, read-out: Solubility pH 7.4) amounted to 0.045 µg/mL (≈ 0.0885 µM).

In the case of `Cc1ccc(-n2nc(C(C)(C)CO)cc2NC(=O)NCc2cc(F)ccc2Oc2ccc3c(cnn3CCO)c2)cc1` [Example 1], the solubility in data set [3] (aqueous sample containing 1% DMSO, aqueous buffer, kinetic from dmso stock, pH 6.5, starting conc. 16 μg/mL (with 1% DMSO), read-out: Solubility pH 6.5) is 0.75 µg/mL (≈ 1.31 µM); in data set [3] (aqueous sample containing 1% DMSO, aqueous buffer, kinetic from dmso stock, pH 7.4, starting conc. 16 μg/mL (with 1% DMSO), read-out: Solubility pH 7.4), 0.7 µg/mL (≈ 1.22 µM); in data set [3] (aqueous sample containing 1% DMSO, simulated gastric fluid, kinetic from dmso stock, pH 1.2, starting conc. 16 μg/mL (with 1% DMSO), read-out: Solubility pH 1.2) it was 7.9 µg/mL (≈ 13.8 µM); in data set [3] (aqueous sample containing 2% DMSO, aqueous buffer, kinetic from dmso stock, pH 6.5, starting conc. 32 μg/mL (with 2% DMSO), read-out: Solubility pH 6.5) it was 1.8 µg/mL (≈ 3.14 µM); in data set [3] (aqueous sample containing 2% DMSO, aqueous buffer, kinetic from dmso stock, pH 7.4, starting conc. 32 μg/mL (with 2% DMSO), read-out: Solubility pH 7.4), 1.7 µg/mL (≈ 2.97 µM); in data set [3] (aqueous sample containing 2% DMSO, simulated gastric fluid, kinetic from dmso stock, pH 1.2, starting conc. 32 μg/mL (with 2% DMSO), read-out: Solubility pH 1.2) it was 18.8 µg/mL (≈ 32.8 µM). Also, the “aqueous solubility compared to the compound of Example 138 of WO 2004/078116” value in data set [3] (at pH 6.5 and 7.4) is reported as “improved aqueous solubility”. Also, the pIC50 in data set [1] was 6.35.
